Measured values: patent US20090075978A1, “SUBSTITUTED PROPIOLIC ACID AMIDES AND THEIR USE FOR PRODUCING DRUGS” (Grunenthal GmbH, priority 2005, published 2009)

What follows are compounds tested against T1, mGluR5 receptor (pig) (Sus scrofa, UniProt I3LUI7) (assay: [3H]-MPEP binding in the mGluR5 receptor binding assay (pig brain homogenate)). Details: 10 μM test compound; 5 nM [3H]-MPEP; 450 μg protein from pig brain homogenate; 60 min, room temperature.
T1 construct: 450 μg of protein from brain homogenate is incubated; from tissue; host or cells: pig brain hemispheres without medulla, cerebellum and pons
Procedure: I. Method for Determining the Inhibition of [^3H]-MPEP Binding in the mGluR5 Receptor Binding Assay
Pig brain homogenate is produced by homogenisation (Polytron Pt 3000, Kinematica AG, 10,000 revolutions per minute for 90 seconds) of pig brain hemispheres without medulla, cerebellum and pons in a buffer of pH 8.0 (30 mM Hepes, Sigma, order number H3375+1 tablet Complete Roche Diagnostics, order number 1836145 made up to 100 ml) in a ratio of 1:20 (brain weight/volume) and differential centrifugation at 900×g and 40,000×g. 450 μg of protein from brain homogenate is incubated in each case in 250 μl incubation batches in 96-well microtitre plates with 5 nM ^3[H]-MPEP (Tocris, order number R1212) (MPEP=[…]) and the compounds to be investigated ([…]) in the buffer (as above) at room temperature for 60 min.
The batches are then filtered with the assistance of a Brandel Cell Harvester (Brandel, Robotic 9600 model) on Unifilter plates with glass filter mats (Perkin Elmer, order number 6005177) and then washed 3 times with buffer (as above) using 250 μl per sample. The filter plates are then dried for 60 min at 55° C. Then 30 μl of Ultima Gold™ scintillating material (Packard BioScience, order number 6013159) is added per well and after 3 hours the samples are measured using the β counter (Microbeta, Perkin Elmer). Nonspecific binding is determined by the addition of 10 μM MPEP (Tocris, order number 1212).

T1 sequence (I3LUI7 19-1212): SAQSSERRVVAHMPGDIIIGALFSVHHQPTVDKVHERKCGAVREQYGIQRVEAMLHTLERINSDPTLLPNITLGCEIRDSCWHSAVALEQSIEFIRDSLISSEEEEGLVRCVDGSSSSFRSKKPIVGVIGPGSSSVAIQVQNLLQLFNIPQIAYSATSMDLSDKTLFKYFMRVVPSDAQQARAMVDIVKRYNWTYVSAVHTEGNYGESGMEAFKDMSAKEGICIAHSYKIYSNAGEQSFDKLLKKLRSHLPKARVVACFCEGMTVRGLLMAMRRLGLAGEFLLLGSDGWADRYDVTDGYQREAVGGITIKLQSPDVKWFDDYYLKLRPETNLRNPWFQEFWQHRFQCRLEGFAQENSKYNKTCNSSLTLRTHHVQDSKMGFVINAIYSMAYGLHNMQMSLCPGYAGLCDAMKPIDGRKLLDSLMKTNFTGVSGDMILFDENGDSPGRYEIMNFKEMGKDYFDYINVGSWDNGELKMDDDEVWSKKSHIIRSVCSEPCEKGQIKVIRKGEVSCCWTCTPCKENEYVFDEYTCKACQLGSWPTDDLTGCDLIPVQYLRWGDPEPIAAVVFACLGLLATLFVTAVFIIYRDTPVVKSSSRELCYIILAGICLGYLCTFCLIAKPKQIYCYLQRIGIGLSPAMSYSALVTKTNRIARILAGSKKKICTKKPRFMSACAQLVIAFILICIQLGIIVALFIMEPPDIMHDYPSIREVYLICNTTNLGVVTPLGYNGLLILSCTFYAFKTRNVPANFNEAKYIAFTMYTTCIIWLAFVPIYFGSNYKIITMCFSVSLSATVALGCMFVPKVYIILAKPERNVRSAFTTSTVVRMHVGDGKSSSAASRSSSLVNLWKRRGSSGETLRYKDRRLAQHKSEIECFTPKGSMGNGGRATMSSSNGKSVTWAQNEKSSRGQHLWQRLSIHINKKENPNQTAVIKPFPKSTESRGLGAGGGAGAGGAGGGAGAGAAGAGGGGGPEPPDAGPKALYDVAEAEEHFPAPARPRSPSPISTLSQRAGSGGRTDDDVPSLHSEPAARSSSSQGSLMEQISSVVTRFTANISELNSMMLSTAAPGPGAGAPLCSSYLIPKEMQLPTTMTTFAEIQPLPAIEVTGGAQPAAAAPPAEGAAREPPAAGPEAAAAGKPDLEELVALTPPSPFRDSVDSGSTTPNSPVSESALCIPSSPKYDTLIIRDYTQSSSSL

Row | Structure (SMILES) | mGluR5 receptor (pig) (10 μM) Inhibition (%)
1 | O=C(C#Cc1ccc(C(F)(F)F)cc1)N1CCc2ccccc2C1 [Example 41, 2-(3-(4-trifluoromethylphenyl)-propiolyl)-1,2,3,4-tetrahydro-isoquinoline] | 16%
2 | Cc1ccc(C#CC(=O)N2c3ccccc3CC2C)cc1C (stereo not drawn) [Example 72, 1-(3-(3,4-dimethylphenyl)-propiolyl)-2-methyl-indoline] | 25%
3 | Cc1cccc(C#CC(=O)N2c3ccccc3CC2C)c1C (stereo not drawn) [Example 46, 1-(3-(2,3-dimethylphenyl)-propiolyl)-2-methyl-indoline] | 18%
4 | CC1Cc2ccccc2N1C(=O)C#Cc1cccc(Cl)c1 (stereo not drawn) [Example 66, 1-(3-(3-chlorophenyl)-propiolyl)-2-methyl-indoline] | 70%
5 | CC1Cc2ccccc2N1C(=O)C#Cc1cccs1 (stereo not drawn) [Example 56, 1-(3-(2-thienyl)-propiolyl)-2-methyl-indoline] | 48%
6 | COc1ccc(C#CC(=O)N2c3ccccc3CC2C)cc1 (stereo not drawn) [Example 54, 1-(3-(4-methoxyphenyl)-propiolyl)-2-methyl-indoline] | 46%
7 | O=C(C#Cc1ccccc1)N1CCc2ccccc2C1 [Example 43, 2-(3-phenyl-propiolyl)-1,2,3,4-tetrahydro-isoquinoline] | 84%
8 | Cc1ccc(C#CC(=O)N2CCCc3ccccc32)cc1 [Example 57, 1-(3-(4-tolyl)-propiolyl)-1,2,3,4-tetrahydro-quinoline] | 18%
9 | Cc1ccc(C#CC(=O)N2CCc3ccccc3C2)cc1 [Example 39, 2-(3-(4-tolyl)-propiolyl)-1,2,3,4-tetrahydro-isoquinoline] | 44%
10 | COc1ccc(Br)c(C#CC(=O)N2c3ccccc3CC2C)c1 (stereo not drawn) [Example 73, 1-(3-(2-bromo-5-methoxyphenyl)-propiolyl)-2-methyl-indoline] | 45%
11 | Cc1ccc(C#CC(=O)N2CCc3ccccc3C2)cc1C [Example 71, 2-(3-(3,4-dimethylphenyl)-propiolyl)-1,2,3,4-tetrahydro-isoquinoline] | 43%
12 | CC1Cc2ccccc2N1C(=O)C#Cc1ccccc1C(F)(F)F (stereo not drawn) [Example 75, 1-(3-(2-trifluoromethylphenyl)-propiolyl)-2-methyl-indoline] | 45%
13 | CC1Cc2ccccc2N1C(=O)C#Cc1ccccc1F (stereo not drawn) [Example 38, 1-(3-(2-fluorophenyl)-propiolyl)-2-methyl-indoline] | 49%
14 | CC1Cc2ccccc2N1C(=O)C#Cc1ccc(F)cc1 (stereo not drawn) [Example 65, 1-(3-(4-fluorophenyl)-propiolyl)-2-methyl-indoline] | 34%
15 | Cc1cccc(C#CC(=O)N2c3ccccc3CC2C)c1 (stereo not drawn) [Example 52, 1-(3-(3-tolyl)-propiolyl)-2-methyl-indoline] | 68%
16 | Cc1ccc(C#CC(=O)N2c3ccccc3CC2C)cc1F (stereo not drawn) [Example 68, 1-(3-(3-fluoro-4-methylphenyl)-propiolyl)-2-methyl-indoline] | 11%
17 | N#Cc1ccccc1C#CC(=O)N1CCc2ccccc2C1 [Example 76, 2-(3-(2-cyano-phenyl)-propiolyl)-1,2,3,4-tetrahydro-isoquinoline] | 26%
18 | Cc1cc(C#CC(=O)N2c3ccccc3CC2C)ccc1F (stereo not drawn) [Example 36, 1-(3-(4-fluoro-3-methylphenyl)-propiolyl)-2-methyl-indoline] | 27%
19 | Cc1ccccc1C#CC(=O)N1c2ccccc2CC1C (stereo not drawn) [Example 74, 1-(3-(2-tolyl)-propiolyl)-2-methyl-indoline] | 12%
20 | COc1cccc(C#CC(=O)N2CCc3ccccc3C2)c1 [Example 34, 2-(3-(3-methoxyphenyl)-propiolyl)-1,2,3,4-tetrahydro-isoquinoline] | 12%
21 | Cc1ccc(C#CC(=O)N2CCc3ccccc3C2)cc1F [Example 67, 2-(3-(3-fluoro-4-methylphenyl)-propiolyl)-1,2,3,4-tetrahydro-isoquinoline] | 12%
22 | O=C(C#Cc1ccc(F)cc1)N1CCc2ccccc2C1 [Example 64, 2-(3-(4-fluorophenyl)-propiolyl)-1,2,3,4-tetrahydro-isoquinoline] | 88%

Same assay, conditions: pig brain homogenate; 5 nM [3H]-MPEP

Row | IC50 | Structure (SMILES)
23 | 4.7 nM | Cc1ccc2c(c1)CN(C(=O)C#Cc1cccc(Cl)c1)CC2 [Example 25, 2-(3-(3-chlorophenyl)-propiolyl)-7-methyl-1,2,3,4-tetrahydro-isoquinoline]
24 | 76 nM | COc1ccc2c(c1)CN(C(=O)C#Cc1cccc(Cl)c1)CC2 [Example 22, 2-(3-(3-chlorophenyl)-propiolyl)-7-methoxy-1,2,3,4-tetrahydro-isoquinoline]
25 | 2.6 nM | Cc1cccc2c1C(C)N(C(=O)C#Cc1cccc(Cl)c1)CC2 (stereo not drawn) [Example 31, 2-(3-(3-chlorophenyl)-propiolyl)-1,8-dimethyl-1,2,3,4-tetrahydro-isoquinoline]
26 | 720 nM | COc1cc2c(cc1O)CCN(C(=O)C#Cc1cccc(Cl)c1)C2 [Example 16, 2-(3-(3-chlorophenyl)-propiolyl)-6-hydroxy-7-methoxy-1,2,3,4-tetrahydro-isoquinoline]
27 | 8.4 nM | COc1cccc2c1CN(C(=O)C#Cc1cccc(Cl)c1)CC2 [Example 29, 2-(3-(3-chlorophenyl)-propiolyl)-8-methoxy-1,2,3,4-tetrahydro-isoquinoline]
28 | 26 nM | O=C(C#Cc1cccc(Cl)c1)N1CCn2cccc2C1 [Example 27, 2-(3-(3-chlorophenyl)-propiolyl)-1,2,3,4-tetrahydropyrrolo[1,2-a]pyrazine]
29 | 55 nM | Cc1ccc2c(c1)CCN(C(=O)C#Cc1cccc(Cl)c1)C2 [Example 20, 2-(3-(3-chlorophenyl)-propiolyl)-6-methyl-1,2,3,4-tetrahydro-isoquinoline]
30 | 2720 nM | COc1cc2c(cc1OC)CN(C(=O)C#Cc1cccc(Cl)c1)CC2 [Example 11, 2-(3-(3-chlorophenyl)-propiolyl)-6,7-dimethoxy-1,2,3,4-tetrahydro-isoquinoline]
31 | 4.7 nM | Cc1cccc2c1CCN(C(=O)C#Cc1cccc(Cl)c1)C2 [Example 26, 2-(3-(3-chlorophenyl)-propiolyl)-5-methyl-1,2,3,4-tetrahydro-isoquinoline]
32 | 720 nM | COc1cc2c(cc1O)CN(C(=O)C#Cc1cccc(Cl)c1)CC2 [Example 15, 2-(3-(3-chlorophenyl)-propiolyl)-7-hydroxy-6-methoxy-1,2,3,4-tetrahydro-isoquinoline]

Further lines, the compound ahead of its results:

Row | Structure (SMILES) | IC50
33 | O=C(C#Cc1ccccc1)N1CCc2onc(-c3ccccc3)c2C1 [Example 9, 3-phenyl-5-(3-phenyl-propiolyl)-4,5,6,7-tetrahydro-isoxazolo[4,5-c]pyridine] | 2360 nM
34 | O=C(C#Cc1ccccc1)N1CCc2ccccc21 [Example 3, 1-(3-phenyl-propiolyl)-2,3-dihydro-indole] | 7940 nM
35 | O=C(C#Cc1ccccc1)N1CCc2ncccc2C1 [Example 4, 6-(3-phenyl-propiolyl)-5,6,7,8-tetrahydro-[1,6]naphthyridine] | 2320 nM
36 | COc1ccc2c(c1)CCN(C(=O)C#Cc1ccccc1)C2 [Example 14, 6-methoxy-2-(3-phenyl-propiolyl)-1,2,3,4-tetrahydro-isoquinoline] | 3100 nM
